The source made the active and inactive calls. The rule behind the calls is not given here.
Experiments:
[1] = tested on: Brugia malayi; test: Antifilarial activity against Brugia malayi isolated from jird assessed as motility at 100 uM after 24 hr by dissecting microscopy; assay type: functional, organism-based
[2] = Stimulation of GST in Mus musculus (mouse) liver using CDNB as substrate at 100 uM after 10 min by spectrophotometric analysis relative to control; assay type: ADME, tissue-based
[3] = tested on: Brugia malayi; test: Antifilarial activity against Brugia malayi isolated from jird assessed as inhibition of MTT reduction at 100 uM after 1 hr; assay type: functional
[4] = tested on: GST (glutathione S-transferase); test: Inhibition of GST in Mus musculus (mouse) liver using CDNB as substrate at 100 uM after 10 min by spectrophotometric analysis relative to control; assay type: tissue-based; settings: probe CDNB

| SMILES | Activity [1] | Activity [2] [%] | inhibition at 100 µM [3] [%] | inhibition at 10 min, 100 µM [4] [%] |
| --- | --- | --- | --- | --- |
| CO[C@@H]1C(C(CC(N)=O)NC(=O)Nc2ccc(C)c(Cl)c2)O[C@H]2OC(C)(C)O[C@H]21 (stereo not given in full) | inactive |  |  |  |
| CC(=O)c1ccc(N2C(=O)CC([C@H]3O[C@@H]4OC(C)(C)O[C@@H]4[C@H]3OCc3ccccc3)NC2=O)cc1 (stereo not given in full) | Active | 19 | 27 |  |
| COc1ccc(CN2C(=O)N(c3cccc(C(C)=O)c3)C(=O)CC2[C@H]2O[C@@H]3OC(C)(C)O[C@@H]3[C@H]2OCc2ccccc2)cc1 (stereo not given in full) | inactive | 13 |  |  |
| CCOC(=O)CC(NC(=O)[C@@H]1CCCN1C(=O)OCC1c2ccccc2-c2ccccc21)C1O[C@H]2OC(C)(C)O[C@H]2[C@@H]1OC (stereo not given in full) | Active | 197 | 37 |  |
| CO[C@@H]1[C@H]2OC(C)(C)O[C@H]2O[C@@H]1C1CC(=O)N(Cc2ccccc2)C(=O)N1Cc1ccccc1 (stereo not given in full) | inactive |  |  |  |
| CC1(C)O[C@H]2O[C@H](C3CC(=O)N(Cc4ccccc4)C(=O)N3Cc3ccccc3)[C@H](OCc3ccccc3)[C@H]2O1 (stereo not given in full) | inactive | 13 | 65 |  |
| CCCCN1C(=S)N(c2ccccc2Cl)C(=O)CC1[C@H]1O[C@@H]2OC(C)(C)O[C@@H]2[C@H]1OC (stereo not given in full) | inactive | 64 |  |  |
| CO[C@@H]1[C@H]2OC(C)(C)O[C@H]2O[C@@H]1C1CC(=O)N(c2ccc(F)cc2)C(=O)N1c1ccco1 (stereo not given in full) | inactive |  | 70 |  |
| CC1(C)O[C@@H]2OC(CNCCCCCCCCCCCCNCC3O[C@@H]4OC(C)(C)O[C@@H]4[C@H]3OCc3ccccc3)[C@@H](OCc3ccccc3)[C@@H]2O1 (stereo not given in full) | Active |  | 94 |  |
| CCCCN1C(=S)N(c2cccc(Cl)c2)C(=O)CC1[C@H]1O[C@@H]2OC(C)(C)O[C@@H]2[C@H]1OC (stereo not given in full) | Active | 21 |  |  |
| CO[C@@H]1[C@H]2OC(C)(C)O[C@H]2O[C@@H]1C1CC(=O)N(c2cccc(C#N)c2)C(=O)N1Cc1ccc(Br)cc1 (stereo not given in full) | inactive |  | 37 | 19 |
| COC(=O)CC(NC(=S)Nc1ccccc1)C1O[C@H]2OC(C)(C)O[C@H]2[C@@H]1OCc1ccccc1 (stereo not given in full) | Active |  | 69 |  |
| CO[C@@H]1[C@H]2OC(C)(C)O[C@H]2O[C@@H]1C1CC(=O)N(c2cccc(C(C)=O)c2)C(=O)N1Cc1ccc(Br)cc1 (stereo not given in full) | inactive |  |  | 27 |
| CCOC(=O)CC(NC(=O)[C@@H]1CCCN1)C1O[C@H]2OC(C)(C)O[C@H]2[C@@H]1OC (stereo not given in full) | Active | 28 |  |  |
| CCCCN(C(=S)Nc1ccccc1Cl)C(CC(=O)OCC)C1O[C@H]2OC(C)(C)O[C@H]2[C@@H]1OC (stereo not given in full) | Active | 38 |  |  |
| CCOC(=O)CC(NCCCCCCCNC(CC(=O)OCC)C1O[C@@H]2OC(C)(C)O[C@@H]2[C@H]1OCc1ccccc1)C1O[C@H]2OC(C)(C)O[C@H]2[C@@H]1OCc1ccccc1 (stereo not given in full) | Active |  |  |  |
| CCCCCCCCCCCCNC(CC(=O)NO)C1O[C@H]2OC(C)(C)O[C@H]2[C@@H]1OCc1ccccc1 (stereo not given in full) | Active | 57 | 98 |  |
| CCCCc1ccc(N2C(=O)CC([C@H]3O[C@@H]4OC(C)(C)O[C@@H]4[C@H]3OC)N(c3ccco3)C2=O)cc1 (stereo not given in full) | inactive |  | 57 |  |
| CCOc1ccc(N2C(=O)CC([C@H]3O[C@@H]4OC(C)(C)O[C@@H]4[C@H]3OC)N(Cc3ccccc3)C2=O)cc1 (stereo not given in full) | inactive |  | 50 |  |
| COc1ccc(CN2C(=O)N(c3cccc(C#N)c3)C(=O)CC2[C@H]2O[C@@H]3OC(C)(C)O[C@@H]3[C@H]2OC)cc1 (stereo not given in full) | inactive |  | 34 | 20 |

| SMILES | Activity [1] | Activity [2] [%] | inhibition at 100 µM [3] [%] | inhibition at 10 min, 100 µM [4] [%] |
| --- | --- | --- | --- | --- |
| CO[C@@H]1[C@H]2OC(C)(C)O[C@H]2O[C@@H]1C1CC(=O)N(c2cccc(C#N)c2)C(=O)N1Cc1ccccc1 (stereo not given in full) | inactive |  |  | 32 |
| CO[C@@H]1[C@H]2OC(C)(C)O[C@H]2O[C@@H]1C1CC(=O)N(Cc2ccccc2)C(=O)N1Cc1ccc(Br)cc1 (stereo not given in full) | Active | 41 |  |  |
| Cc1cc(N2C(=O)CC([C@H]3O[C@@H]4OC(C)(C)O[C@@H]4[C@H]3OCc3ccccc3)N(Cc3ccc(Br)cc3)C2=O)ccc1Cl (stereo not given in full) | Active |  |  |  |
| COc1ccc(N(C(=O)NCc2ccccc2)[C@@H](CC(=O)O)C(=O)NC(CC(N)=O)C2O[C@H]3OC(C)(C)O[C@H]3[C@@H]2OC)cc1 (stereo not given in full) | inactive |  |  |  |
| CCOC(=O)CC(C1O[C@H]2OC(C)(C)O[C@H]2[C@@H]1OC)N(Cc1ccccc1O)C(=O)Nc1cccc(C(C)=O)c1 (stereo not given in full) | Active |  | 41 | 23 |
| CO[C@@H]1C(C(CC(N)=O)N(C(=O)Nc2ccccc2C)C(CC(N)=O)C2O[C@@H]3OC(C)(C)O[C@@H]3[C@H]2OC)O[C@H]2OC(C)(C)O[C@H]21 (stereo not given in full) | inactive |  | 20 |  |
| CO[C@@H]1[C@H]2OC(C)(C)O[C@H]2O[C@@H]1C1CC(=O)N(c2ccc(Br)cc2)C(=O)N1c1ccco1 (stereo not given in full) | inactive |  | 32 | 32 |
| CCOC(=O)CC(NCCCCCCCCCCCCNC(CC(=O)OCC)C1O[C@@H]2OC(C)(C)O[C@@H]2[C@H]1OCc1ccccc1)C1O[C@H]2OC(C)(C)O[C@H]2[C@@H]1OCc1ccccc1 (stereo not given in full) | inactive |  |  |  |
| CCCCc1ccc(N2C(=O)CC([C@H]3O[C@@H]4OC(C)(C)O[C@@H]4[C@H]3OC)N(Cc3ccccc3)C2=O)cc1 (stereo not given in full) | inactive |  | 76 | 13 |
| COc1ccc(CN2C(=O)N(c3cc(Cl)cc(Cl)c3)C(=O)CC2[C@H]2O[C@@H]3OC(C)(C)O[C@@H]3[C@H]2OCc2ccccc2)cc1 (stereo not given in full) | inactive | 12 | 92 |  |
| CO[C@@H]1[C@H]2OC(C)(C)O[C@H]2O[C@@H]1C1CC(=O)N(c2ccc(Cl)c(C)c2)C(=O)N1Cc1ccc(Br)cc1 (stereo not given in full) | inactive |  | 45 |  |
| CCOc1ccc(N2C(=O)CC([C@H]3O[C@@H]4OC(C)(C)O[C@@H]4[C@H]3OC)N(c3ccco3)C2=O)cc1 (stereo not given in full) | inactive |  | 34 | 26 |
| CO[C@@H]1[C@H]2OC(C)(C)O[C@H]2O[C@@H]1C1CC(=O)N(c2ccc(Cl)cc2)C(=O)N1 (stereo not given in full) | inactive | 24 | 52 |  |
| CC[C@H](C)[C@@H](C(=O)NC(CC(N)=O)C1O[C@H]2OC(C)(C)O[C@H]2[C@@H]1OC)N(C(=O)Nc1ccccc1C)c1ccco1 (stereo not given in full) | Active |  |  |  |
| CC1(C)O[C@H]2O[C@H](C3CC(=O)N(Cc4ccccc4)C(=O)N3Cc3ccc(Br)cc3)[C@H](OCc3ccccc3)[C@H]2O1 (stereo not given in full) | inactive |  | 24 |  |
| COc1ccc(CN2C(=O)N(c3cccc(C(C)=O)c3)C(=O)CC2[C@H]2O[C@@H]3OC(C)(C)O[C@@H]3[C@H]2OC)cc1 (stereo not given in full) | inactive |  | 59 | 41 |
| CCOC(=O)CC(NC(=O)[C@@H](N)C(C)C)C1O[C@H]2OC(C)(C)O[C@H]2[C@@H]1OC (stereo not given in full) | Active | 20 |  |  |
| COc1ccc(CN2C(=O)N(Cc3ccccc3)C(=O)CC2[C@H]2O[C@@H]3OC(C)(C)O[C@@H]3[C@H]2OCc2ccccc2)cc1 (stereo not given in full) | inactive |  |  |  |
| CCCCCCCCCCCCCCCCNC(CC(=O)NO)C1O[C@H]2OC(C)(C)O[C@H]2[C@@H]1OC (stereo not given in full) | Active | 214 | 92 |  |
| CC1(C)O[C@@H]2OC(CNCCCCCCCNCC3O[C@@H]4OC(C)(C)O[C@@H]4[C@H]3OCc3ccccc3)[C@@H](OCc3ccccc3)[C@@H]2O1 (stereo not given in full) | inactive |  |  |  |

From ChEMBL document CHEMBL3046834, “MODULATION OF FILARIAL GLUTATHIONE-S-TRANSFERASE(S) ACTIVITY: A POSSIBILITY TOWARDS THE SYNTHESIS OF NEW CLASSES OF ANTIFILARIAL AGENTS” (Med Chem Res, 2004)
